Like-named read-outs stand apart in the source and are kept apart here. Marks after values point to notes of the source that are not given here.
Columns and labels:
[1] = system: BC1, breast cancer; test: In vitro cytotoxicity, human tumor panel: BC1; type: cell-based; settings: Homo sapiens, read-out: ED50 BCI
Summary of the method: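 Human cancer cell panel; cytotoxicity per standard protocol. KB-V1 run ± VLB.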

[2] = system: KB-V1 cells; test: Reversal of MDR, cell survival assay: KB-V1 with or without vinblastine; type: cell-based, human; settings: for IC50: Homo sapiens, KB-V1, 72 hours
Description: One part of a natural product drug discovery program involves monitoring the potential of plant extracts to reverse multiple drug resistance. […] To investigate the potential of plant extracts or compounds to reverse multidrug-resistance, KB-V1 cells are treated with different concentrations of plant extracts or compounds in the presence (1 μg/ml) or absence of vinblastine.
Cytotoxic potential. The cytotoxic potential of test substances with KB-3, KB-V1 and KB-8-5 cells was determined as described previously (24). Briefly, various concentrations of test compounds (dissolved in 10 μl of 10% DMSO) were transferred to 96-well plates, and 190 μl aliquots of cell suspensions (5×10^4 cells/ml) were added to each well. The plates then were incubated for 72 hours at 37° C. (100% humidity with a 5% CO2 atmosphere in air), and 100 μl of cold 20% aqueous trichloroacetic acid were added to the growth medium in each well to fix the cells. The cultures were incubated at 4° C. for 30 minutes, washed, air-dried, stained with sulforhodamine B solution, and washed with 1% acetic acid. […] In each case, a zero-day control was performed by adding an equivalent number of cells to several wells and incubating at 37° C. for 30 minutes, and processing as described above. Optical density values obtained with the zero-day control were subtracted, and cell survival, relative to control (solvent-treated) cultures, was calculated. The cytotoxic potential of the compounds with CEM and CEM/VLB100 cells was determined as described by Beck et al. (30). Cells were grown in 24-well plates at a density of 5–6×10^5 cells/ml. At 48 hours, the cell number was determined using a Coulter Counter, with a channelizer to distinguish cells from debris.

[3] = system: KB-V1 cells; test: [3H]Vinblastine accumulation with intact cells; type: cell-based, human; settings: modulator 0–40 μM
Description: [^3H]Vinblastine accumulation with intact cells. Measurement of the accumulation of [^3H]vinblastine in cell monolayers was performed by the method of Fojo et al. (34) with some modifications. Studies were performed with 24-well plates. In preparing the cell monolayers, 2 ml of a cell suspension containing 2.5×10^5 cells per ml of incubation medium (DMEM with 10% calf serum) were added to each well. Control wells contained 2 ml of assay medium. […] Monolayers were washed three times with cold PBS, dried by inversion, and the cells were treated with trypsin. Cell suspensions were then transferred to vials containing 3 ml of scintillation solution (CytoScint™, ICN), mixed vigorously, and counted. The quantity of [^3H]vinblastine associated with incubations containing cells was corrected by subtracting the counts associated with incubations not containing cells.

[4] = vinblastine 1 μg/ml, listed as pervilleine A

COc1cc(C=CC(=O)O[C@H]2[C@@H](O)[C@@H]3C[C@H](OC(=O)c4cc(OC)c(OC)c(OC)c4)C[C@H]2N3C)cc(OC)c1OC [Compound 3, 3α-(3,4,5-trimethoxybenzoyloxy)-6β-(3,4,5-trimethoxycinnamoyloxy)-7β-hydroxytropane]
IC50 [1]: > 20 µg/mL | IC50 ([2]; absence of vinblastine, read-out: IC50 KB-V1 (−)): > 34000 nM | IC50 ([2]; presence of vinblastine (1 μg/ml), read-out: IC50 KB-V1 (+)): 360 nM | Ratio of IC50 values KB-3/[KB-V1 (+)] ([2]; vinblastine 1 μg/ml, listed as Pervilleine A): 66.6^d | Ratio of IC50 values KB-3/[KB-V1 (+)] [2, 4]: 66.6 | Ratio of IC50 values [KB-V1 (−)]/[KB-V1 (+)] [2, 4]: > 95 | fold increase of [3H]vinblastine accumulation [3]: about 27 fold

Reference: US6989396B2, “Tropane alkaloid multidrug resistance inhibitors from Erythroxylum pervillei and use of the same” (The Board of Trustees of the University of Illinois, priority 2001, dated 2006)
